Earlier results in patent publication US9677978B2, “Fixative solution, for fixation and preservation of biological samples” (priority 2011, dated 2017).

Conditions: in 20 months; commercial biocide solutions stabilized by antioxidants

N#CC(Br)(Br)C(N)=O [DBPNA, 2,2-Dibromo-3-nitrilopropionamide]
degradation of DBPNA: < 10%
